Reference: ChEMBL document CHEMBL2057121, “Selective non-lipid modulator of LPA5 activity in human platelets” (Bioorg Med Chem Lett, 2012)

Assays:
[1] = target: Lysophosphatidic acid receptor 5 (Homo sapiens, UniProt Q9H1C0); experiment: Antagonist activity at human recombinant LPA5 receptor expressed in rat RH7777 cells assessed as inhibition of hexadecyl-LPA-induced effect; assay type: functional, cell-based
[2] = target: Lysophosphatidic acid receptor 1/3 (Homo sapiens, UniProt Q9UBY5+Q92633); experiment: Antagonist activity at LPA1/3 receptor in human isolated platelets assessed as inhibition of collagen-induced platelet aggregation after 3 mins; assay type: functional

Chain of Lysophosphatidic acid receptor 5 (Q9H1C0 whole entry): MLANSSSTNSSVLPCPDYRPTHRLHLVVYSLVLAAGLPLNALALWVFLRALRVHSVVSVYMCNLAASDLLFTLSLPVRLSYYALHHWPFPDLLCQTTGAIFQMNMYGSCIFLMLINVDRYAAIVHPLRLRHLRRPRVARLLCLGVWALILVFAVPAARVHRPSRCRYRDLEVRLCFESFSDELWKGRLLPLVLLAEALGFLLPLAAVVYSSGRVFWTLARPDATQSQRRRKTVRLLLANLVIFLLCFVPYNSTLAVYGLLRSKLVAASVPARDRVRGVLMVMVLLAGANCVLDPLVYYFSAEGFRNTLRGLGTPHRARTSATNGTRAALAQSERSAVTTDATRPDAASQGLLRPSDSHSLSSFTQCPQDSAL

COc1cccc(-n2nc(C(=O)O)cc2-c2ccc(C3CCCCC3)c(Cl)c2)c1
IC50 [1]: 0.8 µM | IC50 [2]: > 10 µM
